Series [1] has as its system HeLa cervix epithelioid carcinoma. In words: MTT cell antiproliferative assay, HeLa. It is filed as cell-based. The conditions noted are these: Homo sapiens, 72 h. The method, then:
(§1) The in vitro antiproliferative activity of the synthesized compounds was evaluated by a colorimetric reaction, using the MTT reagent. They were tested against three different human tumor cell lines: HeLa cervix epithelioid carcinoma, HT-29 colon adenocarcinoma, and MCF-7 breast adenocarcinoma. […] Moving the alkylamino substituent from a para to a meta position with respect to the bridge results in potency reduction, except for the phenstatin analogue 1f. However, the introduction of a nitrogen atom to form 2-dimethylaminopyridine derivatives entails a loss of activity, both for phenstatin analogues (1b, 2b), while for isocombretastatins, it only involves a 2–3 times potency decrease (3b). For combretastatins, it implies an improvement in the cytotoxicity values down to tenths of nanomolar (8b). […] On the other hand, the best 2-dimethylaminopyridine was combretastatin 8b. All ammonium salts derivatives were not cytotoxic at micromolar concentrations.
(§2) HeLa (human cervical carcinoma) and MCF-7 (human breast carcinoma) cell lines were cultured in Dulbecco’s Modified Eagles Medium (DMEM) supplemented with 2 mM L-glutamine (Lonza-Cambrex, Karlskoga, Sweden), 10% (v/v) heat inactivated fetal bovine serum (HIFBS) (Lonza-Cambrex) and 100 μg/mL streptomycin-100 IU/mL penicillin (Lonza-Cambrex) at 37 °C in humidified 95% air and 5% CO2. HT-29 (human colon carcinoma) cells were cultured at 37 °C in complete RPMI 1640 medium containing 2 mM L-glutamine, 10% (v/v) HIFBS and 100 μg/mL streptomycin-100 IU/mL penicillin in humidified 95% air and 5% CO2 atmosphere.
(§3) The effect of the different compounds on the proliferation of human cell lines was determined by using the MTT (3-[4,5-dimethylthiazol-2-yl]-2,5-diphenyltetrazolium bromide) reagent (MTT Thiazolyl Blue Tetrazolium Bromide, Sigma-Aldrich, St. Louis, MO, USA) dissolved in PBS 5 mg/mL. Cell viability was evaluated seeding 100 µL of cells in exponential growth phase with appropriate cell line concentration (1.5 × 10^4 HeLa and MCF-7 cells/mL and 3 × 10^4 HT-29 cells/mL) in complete medium in 96-well plates at 37 °C and 5% CO2. After 24 h incubation to allow cells to attach to the plates the ligands were added at different concentrations from 10^−5 to 10^−9 M. The effect on the proliferation was evaluated 72 h post-treatment by adding the MTT reagent (10 µL/well) to a final concentration of 0.5 mg/mL and the plate was further incubated for another 3 h. After this period, the supernatant was removed, the MTT violet crystals formed on the bottom of each well were dissolved in DMSO (100 µL/well) and subsequently, the absorbance of the color complex was read at 570 nm using a multi-well plate reader. Compounds were dissolved in dimethyl sulfoxide (DMSO) and the final solvent concentrations never exceeded 0.5% (v/v). The control wells included treated cells with 0.5% (v/v) DMSO and the positive control. Measurements were performed in triplicate, and each experiment was repeated three times. […] Nonlinear curves fitting the experimental data were carried out for each compound.
Background: Formazan colour is commonly taken as a measure of viable cells.

Series [2] relates to Bovine brain microtubule protein (MTP). In words: Tubulin polymerization inhibition assay (turbidimetry). It is filed as biochemical. The conditions noted are these: 1.5 mg/mL MTP; IC50 calculated only if more than 50% inhibition at 20 µM; read-out: TPI IC50. On the procedure:
Bovine brain microtubule protein (MTP) was isolated as previously described. Briefly, it was purified according to the modified Shelanski method by two cycles of temperature-dependent assembly/disassembly.
Tubulin polymerization was monitored using a Helios α spectrophotometer by measuring the increase in turbidity at 450 nm, caused by a shift from 4 °C to 37 °C, which allows the in vitro MTP self-disassembly and assembly respectively. […] Firstly, ligands at 20 µM concentration, were incubated with 1.5 mg/mL MTP at 20 °C for 30 min and subsequently cooled on ice for 10 min. Then, the experiment starts at 4 °C to establish the initial baseline. The assembly process was initiated by shifting of the temperature to 37 °C and the turbidity produced can be measured by an absorbance increase. After reaching a stable plateau, the temperature was switched back to 4 °C to return to the initial absorption values. The difference in amplitude between the stable plateau and the initial baseline of the curves was taken as the degree of tubulin polymerization for each experiment. […] All the measurements were carried out in at least two independent experiments using MTP from different isolation.

A short description of series [3]: Aqueous solubility determination (shake flask, UV). It is filed as physicochemical. The following applies: thermodynamic from solid, phosphate buffer pH 7.0, 48 h stirring, filtered, UV, read-out: Solub. The method, then:
One of the expected effects of introducing nitrogen substitutions on combretastatin and isocombretastatin analogues, is an increase in aqueous solubility. Solubility was spectrophotometrically determined in phosphate buffer at pH 7. UV absorbance of soluble compounds was measured after shaking and microfiltration. […] In addition, aqueous solubilities of the corresponding ammonium salts are over 1 mg/mL.
This great improvement is probably due to the symmetry reduction, combined with an increased polarity for 2g.
Compounds were stirred in a solution of phosphate buffer at pH 7.0 (1–2 mg of compound in 300 µL of buffer) during 48 h. After that, the samples were filtered over a […] filter to discard the insoluble residues. In order to determine the maximum wavelength of absorbance for each compound, a scan between 270 and 400 nm was performed. Once the wavelength was selected, a calibration line was performed and the concentration of the stirred and filtered samples was measured.

Series [4] has as its system MCF-7 breast adenocarcinoma. In words: MTT cell antiproliferative assay, MCF-7. It is filed as cell-based. The conditions noted are these: Homo sapiens, MCF7, 72 h. On the procedure:
as §1, §2, §3

Series [5] deals with HeLa, HT-29 and MCF-7 human tumor cell lines. In words: Antiproliferative activity over the three human tumor cell lines (MTT). The following applies: Homo sapiens, read-out: Cytotoxicity range (range of antiproliferative IC50 values). It is filed as cell-based. The method, then: as §1
The antiproliferative activity of the compounds against three human tumor cell lines of different origins (i.e., HeLa cervix epithelioid carcinoma, HT-29 colon adenocarcinoma and MCF-7 breast adenocarcinoma) was evaluated by the MTT method. […] This high success rate is the result of a combination of favorable scaffolds and substituents, and it is similar to those of previous reports on related series. […] We have previously observed the same trend for related compounds acting at the colchicine site of tubulin [10, 23]. For this pyridine series, we observed a different potency trend when we compare the 4-amino-3-pyridine and the 3-amino-4-pyridine derivatives. […] This different behavior is probably a reflection of their different shape, combined with the different geometries imposed by different bridges. We have previously shown that the potency ordering isocombretastatins similar to oximes higher than benzophenones could be explained by the higher conjugation of the ketones with the aromatic rings, which imposes a more planar disposition than those required for high affinity colchicine site binding. For the 3-amino-4-pyridine series, more planar structures are required in order to avoid the bumping of the amino substituents with tubulin out the plane of the aromatic ring, an effect which we have previously shown to impact the potency of 3-substituted indolecombretastatins and dimethylaminophenyl phenstatins. This different geometrical disposition of the amino substituents, and the different adaptability of their corresponding pockets in the two series, can also account for the preference of bulkier substituents at position 3, such as the pyrrolidine rather than the smaller dimethylamino. […] The opposite is observed for the 4-dimethylaminophenyl phenstatins 1a and 1b. […] The remarkable levels of solubility achieved for the quaternary ammonium salts came unfortunately at the expenses of biological activity.
The effect of the different compounds on the proliferation of human cell lines was determined by using the MTT (3-[4,5-dimethylthiazol-2-yl]-2,5-diphenyltetrazolium bromide) reagent (MTT Thiazolyl Blue Tetrazolium Bromide, Sigma-Aldrich, St. Louis, MO, USA) dissolved in PBS 5 mg/mL. Cell viability was evaluated seeding 100 µL of cells in exponential growth phase with appropriate cell line concentration (1.5 × 10^4 HeLa and MCF-7 cells/mL and 3 × 10^4 HT-29 cells/mL) in complete medium in 96-well plates at 37 °C and 5% CO2. After 24 h incubation to allow cells to attach to the plates the ligands were added at different concentrations from 10^−5 to 10^−9 M. The effect on the proliferation was evaluated 72 h post-treatment by adding the MTT reagent (10 µL/well) to a final concentration of 0.5 mg/mL and the plate was further incubated for another 3 h. […]

The mark [6] stands for this setting: phosphate buffer, pH 7, aqueous buffer.
Setting [7] is: range over the cell lines, Table S1.

The structures appear in SMILES notation. ≈ marks a conversion by molar mass, not a printed value. Where two headings read alike, the source gives them in different places.

Broadly, the IC50 is the concentration needed to halve the response being measured.

`COc1cc(C(=O)c2ccc(N(C)C)nc2)cc(OC)c1OC` [Compound 1b, (6-(Dimethylamino)pyridin-3-yl)(3,4,5-trimethoxyphenyl)methanone]: the IC50 in series [1] is above 1 µM; in series [2] it was above 20 µM; in series [4], above 1 µM; in series [5] (setting [7]), above 1 µM. Moreover, in series [3] (setting [6]), the solubility at 48 h turned out to be 10.5 µg/mL (≈ 33.2 µM).
Regarding `COc1cc(C(=NO)c2cccc(N(C)C)c2)cc(OC)c1OC` [Compound 2f, (3-(Dimethylamino)phenyl)(3,4,5-trimethoxyphenyl)methanone oxime], the IC50 in series [1] was above 1 µM; in series [2], above 20 µM; in series [4], above 1 µM. Moreover, the solubility at 48 h in series [3] (setting [6]) turned out to be 153 µg/mL (≈ 463 µM).
As for `C=C(c1cccc(N(C)C)c1)c1cc(OC)c(OC)c(OC)c1` [Compound 3f, N,N-Dimethyl-3-(1-(3,4,5-trimethoxyphenyl)vinyl)aniline], the half-maximal inhibitory concentration (IC50) in series [1] was above 1 µM; in series [2], above 20 µM; in series [4], above 1 µM; in series [5] (setting [7]) it was above 1 µM. Further, in series [3] (aqueous buffer), the solubility at 48 h turned out to be 21 µg/mL (≈ 67 µM).
With `COc1ccc(C(=O)c2ccc([N+](C)(C)C)cc2)c(OC)c1OC.[I-]` [Compound 5d, N,N,N-Trimethyl-4-(2,3,4-trimethoxybenzoyl)benzenaminium iodide], the concentration for half-maximal inhibition (IC50) in series [1] is above 1 µM; in series [2] it was above 20 µM; in series [4], above 1 µM; in series [5] (setting [7]) it was above 1 µM. The solubility at 48 h in series [3] (setting [6]) worked out at 4400 µg/mL.
As to `COc1ccc(OC)c(C(=O)c2ccc([N+](C)(C)C)cc2)c1.[I-]` [Compound 5e, 4-(2,5-Dimethoxybenzoyl)-N,N,N-trimethylbenzenaminium iodide], the half-inhibitory concentration (IC50) in series [1] was above 1 µM; in series [2], above 20 µM; in series [4], above 1 µM; in series [5] (setting [7]) it was above 1 µM. For the same compound, in series [3] (setting [6]), the solubility at 48 h is above 5000 µg/mL.
In the case of `COc1cc(C(=NO)c2ccc([N+](C)(C)C)cc2)cc(OC)c1OC.[I-]` [Compound 6a, 4-((Hydroxyimino)(3,4,5-trimethoxyphenyl)methyl)-N,N,N-trimethylbenzenaminium iodide], the IC50 in series [1] was above 1 µM; in series [2], above 20 µM; in series [4], above 1 µM. Moreover, the solubility at 48 h in series [3] (aqueous buffer) was found to be 1500 µg/mL.
Take `C=C(c1ccc([N+](C)(C)C)cc1)c1cc(OC)c(OC)c(OC)c1.[I-]` [Compound 7a, N,N,N-trimethyl-4-(1-(3,4,5-trimethoxyphenyl)vinyl)benzenaminium iodide]: the IC50 in series [1] is above 1 µM; in series [2], above 20 µM; in series [4], above 1 µM; in series [5], above 1 µM. Moreover, the solubility at 48 h in series [3] (aqueous buffer) was found to be 2500 µg/mL.
On to `C=C(c1ccc([N+](C)(C)C)cc1)c1ccc(OC)c(OC)c1OC.[I-]` [Compound 7d, N,N,N-Trimethyl-4-(1-(2,3,4-trimethoxyphenyl)vinyl)benzenaminium iodide], for which the IC50 in series [1] was above 1 µM; in series [2] it was above 20 µM; in series [4] it was above 1 µM; in series [5] (range over the cell lines, Table S1, heading: Cytotoxicity range), above 1 µM. The solubility at 48 h in series [3] (setting [6]) is 1000 µg/mL.
As to `COc1cc(C=Cc2ccc(N3CCCC3)nc2)cc(OC)c1OC` [Compound 8c, 2-(Pyrrolidin-1-yl)-5-(3,4,5-trimethoxystyryl)pyridine], the IC50 in series [1] is above 1 µM; in series [2], above 20 µM; in series [4], above 1 µM; in series [5] (setting [7]), above 1 µM.
With `COc1cc(C=Cc2ccnc(N3CCCC3)c2)cc(OC)c1OC` [Compound 8h, 2-(Pyrrolidin-1-yl)-4-(3,4,5-trimethoxystyryl)pyridine], the IC50 was above 1 µM in series [1], above 20 µM in series [2], above 1 µM in series [4] and above 1 µM in series [5] (setting [7]). Further, in series [3] (setting [6]), the solubility at 48 h came out at 65 µg/mL (≈ 191 µM).
Regarding `COc1cc(C=Cc2ccc([N+](C)(C)C)cc2)cc(OC)c1OC` [Compound 9a, N,N,N-trimethyl-4-(3,4,5-trimethoxystyryl)benzenaminium iodide], the IC50 in series [1] is above 1 µM; in series [2], above 20 µM; in series [4] it was above 1 µM; in series [5] (setting [7]), above 1 µM.
For the compound `COc1cc(C=Cc2ccc([N+](C)(C)C)nc2)cc(OC)c1OC.[I-]` [Compound 9b, N,N,N-trimethyl-5-(3,4,5-trimethoxystyryl)pyridin-2-aminium iodide], the IC50 in series [1] was above 1 µM; in series [2], above 20 µM; in series [4], above 1 µM. Besides, in series [3] (setting [6]), the solubility at 48 h stood at 679 µg/mL.

Values taken from article PMC6930638, “The Masked Polar Group Incorporation (MPGI) Strategy in Drug Design: Effects of Nitrogen Substitutions on Combretastatin and Isocombretastatin Tubulin Inhibitors” (Molecules, 2019).
